{"source": "patent US20210169856A1", "about": "“FORMULATIONS COMPRISING DOPAMINE-B-HYDROXYLASE INHIBITORS AND METHODS FOR THEIR PREPARATION” (BIAL - PORTELA & CA, S.A., priority 2018, published 2021)", "experiment": "Solubility of Compound X, Ph. Eur. 6 / USP 33 descriptive terms", "type": "physicochemical", "from_the_text": "In this specification, we are adopting the definitions of solubility from the classification in the European Pharmacopeia 6th Edition and the United States Pharmacopeia 33 (Reference Tables: Description and Solubility):\nFurther increase in pH results in solubility decrease. […] The pH-dependent solubility profile of Compound X presents certain challenges to the development of pharmaceutical formulations, namely for its dissolution."}
{"compound": "Fc1cc(F)c2c(c1)C[C@@H](n1c(CCNCc3ccccc3)c[nH]c1=S)CO2", "note": "[Compound X]", "values": [{"measurement": "Solubility", "setting": "N,N-methylpyrrolidone", "result": "sparingly soluble"}, {"measurement": "Solubility", "setting": "acetone", "result": "slightly soluble"}, {"measurement": "Solubility", "setting": "acetonitrile", "result": "very slightly soluble"}, {"measurement": "Solubility", "setting": "acidified acetonitrile", "result": "sparingly soluble"}, {"measurement": "Solubility", "setting": "acidified methanol", "result": "sparingly soluble"}, {"measurement": "Solubility", "setting": "acidified water (pH 1.2-2.0)", "result": "sparingly soluble"}, {"measurement": "Medium of maximum solubility", "setting": "aqueous medium", "result": "HCl 0.01 (pH 2.0)"}, {"measurement": "pH dependence of solubility in aqueous medium", "setting": "aqueous medium", "result": "decreases as the pH increases"}, {"measurement": "Solubility", "setting": "chloroform", "result": "very slightly soluble"}, {"measurement": "Solubility", "setting": "cyclohexane", "result": "insoluble"}, {"measurement": "Solubility", "setting": "dichloromethane", "result": "slightly soluble"}, {"measurement": "Solubility", "setting": "dimethyl sulfoxide", "result": "sparingly soluble"}, {"measurement": "Solubility", "setting": "dimethylformamide", "result": "sparingly soluble"}, {"measurement": "Solubility", "setting": "ethanol", "result": "practically insoluble"}, {"measurement": "Solubility", "setting": "ethyl acetate", "result": "very slightly soluble"}, {"measurement": "Solubility", "setting": "iso-octane", "result": "insoluble"}, {"measurement": "Solubility", "setting": "isopropanol", "result": "insoluble"}, {"measurement": "Solubility", "setting": "isopropyl acetate", "result": "very slightly soluble"}, {"measurement": "Solubility", "setting": "methanol", "result": "very slightly soluble"}, {"measurement": "Solubility", "setting": "methyl ethyl ketone", "result": "slightly soluble"}, {"measurement": "Solubility", "setting": "tetrahydrofuran", "result": "sparingly soluble"}, {"measurement": "Solubility", "setting": "toluene", "result": "very slightly soluble"}, {"measurement": "Solubility", "setting": "water", "result": "insoluble"}]}
